Results on 19 molecules are retold here after patent publication US5420339A, “Alpha-aryl or heteroaryl-substituted amide ester ACAT inhibitors” (Warner-Lambert Company, priority 1993, dated 1995).

Data set [1] can be described thus: APCC in vivo screen: blood cholesterol in rats on PCC diet with cholic acid. Details: species or system male Sprague-Dawley rats. As to conditions: single dosing at 4 PM, PCC diet overnight with 1% or 0.5% cholic acid, sacrificed 8 AM. As to the method: The compounds were also evaluated in an in vivo screen designated APCC whereby male Sprague-Dawley rats (200 to 225 g) were randomly divided into treatment groups and dosed at 4 PM with either vehicle (CMC/Tween) or suspensions of compounds in vehicle. The normal chow diet was then replaced with the PCC diet with either 1% or 0.5% cholic acid. The rats consumed this diet ad libitum during the night and were sacrificed at 8 AM to obtain blood samples for cholesterol analysis using standard procedures. Statistical differences between mean cholesterol values for the same vehicle were determined using analysis of variance followed by Fisher-s least significant test.
The data appear in Table II where they are expressed as % change.

The nature of data set [2]: in vivo adrenal toxicity screen in guinea pigs (Dominick et al.). Details: species or system male guinea pigs of the Hartley strain. To be noted: 100 mg/kg daily gavage, 2 weeks; for toxicity class to the adrenal gland: oleic acid vehicle. As to the method:
Male guinea pigs of the Hartley strain (450-500 g) were obtained from Charles River and randomly divided into treatment groups. They were fed standard guinea pig chow ad libitum and dosed daily (AM) by gavage (100 mg/kg). The test compounds were dissolved or suspended in an oleic acid vehicle to facilitate absorption. After 2 weeks the animals were sacrificed by CO2 asphyxiation in the nonfasted state 16 hours after the last dose. Adrenal glands were weighed, fixed in 10% formalin, processed by routine paraffin techniques, sectioned, and then stained with hematoxylin and eosin for light microscopy. Toxicity was defined by the incidence, severity, and complexity of adrenal histopathologic alterations in the zona fasciculata (e.g., adrenal cortical atrophy, increased coarse vacuolation, single-cell necrosis, inflammatory cell infiltrates, mineralization/ectopic bone formation, and increased cytoplasmic eosinophilia).

Take `CCCOC(=O)C(C(=O)Nc1c(C(C)C)cccc1C(C)C)c1ccccc1` (racemic) [Example 9, (±)-Benzeneacetic acid, α-[[[2,6-bis(1-methylethyl)phenyl]amino]carbonyl]-, propyl ester]: the “APCC % Change TC” value in data set [1] is recorded as -20%.

As for `CCCCCCCCCCCCC(C)OC(=O)CC(=O)Nc1c(C(C)C)cccc1C(C)C` (racemic) [(±)3-[[2,6-bis(1-methylethyl)phenyl]amino]-3-oxo-propanoic acid, 1-methyltridecyl ester], in data set [2], the “atrophy of the zona reticularis (incidence)” value is “two of six”, the “cytotoxic zonal atrophy of the zona fasciculata (incidence)” value is listed as “six of six”, the “increased coarse vacuoles (incidence)” value is given as “two of six” and the “inflammatory cell infiltrates (incidence)” value is on record as “four of six”. Further, in data set [2], the “necrosis of the adrenal cortex (incidence)” value is listed as “four of six” and the “toxicity class to the adrenal gland” value is “highly toxic to the adrenal gland”. On to `CCCCCCCCCCOC(=O)C(C(=O)Nc1c(C(C)C)cccc1C(C)C)c1ccccc1` (racemic) [Example 6, (±)-Benzeneacetic acid, α-[[[2,6-bis(1-methylethyl)phenyl]amino]carbonyl]-, decyl ester], for which the “APCC % Change TC” value in data set [1] is -58%. On to `CCCCCCCCCCCCC(C)OC(=O)C(C(=O)Nc1c(C(C)C)cccc1C(C)C)c1ccccc1` (racemic) [Example 1, (±)-Benzeneacetic acid, α-[[[2,6-bis(1-methylethyl)phenyl]amino]carbonyl]-, 1-methyltridecylester], for which the “APCC % Change TC” value in data set [1] is recorded as -61%. Besides, in data set [2], the “increased coarse vacuoles (incidence)” value is “one of six” and the “toxicity class to the adrenal gland” value is on record as “nontoxic to the adrenal gland”. For `CCCCCCCCCCCCC(C)OC(=O)C(C(=O)Nc1c(OC)cc(OC)cc1OC)c1ccccc1` (racemic) [Example 17, (±)-Benzeneacetic acid, α-[[(2,4,6-trimethoxyphenyl)amino]carbonyl]-, 1-methyltridecyl ester], the “APCC % Change TC” value in data set [1] is recorded as -59%. Take `CCCCCCCCCOC(=O)C(C(=O)Nc1c(C(C)C)cccc1C(C)C)c1ccccc1` (racemic) [Example 11, (±)-Benzeneacetic acid, α-[[[2,6-bis(1-methylethyl)phenyl]amino]carbonyl]-, nonyl ester]: the “APCC % Change TC” value in data set [1] was -67%.

For the molecule `CCCCCCCCCCCCOC(=O)C(C(=O)Nc1c(C(C)C)cccc1C(C)C)c1ccccc1` (racemic) [Example 3, (±)-Benzeneacetic acid, α-[[[2,6-bis(1-methylethyl)phenyl]amino]carbonyl]-, dodecyl ester], the “APCC % Change TC” value in data set [1] is -63%. In data set [2], the “increased coarse vacuoles (incidence)” value is “five of six” and the “toxicity class to the adrenal gland” value was “nontoxic to the adrenal gland”.

With `CCCCCCCCCCCCOC(=O)C(C(=O)Nc1c(OC)cc(OC)cc1OC)c1ccccc1` (racemic) [Example 18, (±) -Benzeneacetic acid, α-[[(2,4,6-trimethoxyphenyl)amino]carbonyl]-, dodecyl ester], the “APCC % Change TC” value in data set [1] is -51%. Still for that read-out and setting: the figure for `CCCCCCCCCCC(C)OC(=O)C(C(=O)Nc1c(C(C)C)cccc1C(C)C)c1ccccc1` (racemic) [Example 4, (±)-Benzeneacetic acid, α-[[[2,6-bis(1-methylethyl)phenyl]amino]carbonyl]-, 1-methylundecyl ester] is -37%; for `CCCCCCCCCCCCCCC(C)OC(=O)C(C(=O)Nc1c(C(C)C)cccc1C(C)C)c1ccccc1` (racemic) [Example 16, (±)-Benzeneacetic acid, α-[[[2,6-bis(1-methylethyl)phenyl]amino]carbonyl]-, 1-methylpentadecyl ester] it is -37%; for `CCCCCCCCCCCCCCCCCCOC(=O)C(C(=O)Nc1c(C(C)C)cccc1C(C)C)c1ccccc1` (racemic) [Example 14, (±)-Benzeneacetic acid, α-[[[2,6-bis(1-methylethyl)phenyl]amino]carbonyl]-, octadecyl ester] it is -25%.

With `CCCCCCCCOC(=O)C(C(=O)Nc1c(C(C)C)cccc1C(C)C)c1ccccc1` (racemic) [Example 10, (±)-Benzeneacetic acid, α-[[[2,6-bis(1-methylethyl)phenyl]amino]carbonyl]-, octyl ester], in data set [1], the “APCC % Change TC” value is listed as -56%. Regarding `CCCCCCCCCCCCCCOC(=O)C(C(=O)Nc1c(C(C)C)cccc1C(C)C)c1ccccc1` (racemic) [Example 5, (±)-Benzeneacetic acid, α-[[[2,6-bis(1-methylethyl)phenyl]amino]carbonyl]-, tetradecyl ester], in data set [1], the “APCC % Change TC” value is -49%.

As to `CCCCCCCCCCCCOC(=O)C(C(=O)Nc1c(C(C)C)cccc1C(C)C)c1ccccn1` (racemic) [Example 19, (±)-2-pyridineacetic acid, α-[[[2,6-bis(1-methylethyl)phenyl]amino]carbonyl]-, dodecyl ester], the “APCC % Change TC” value in data set [1] is given as -43%. Still for that read-out and setting: to `CCCCC(C)(C)OC(=O)C(C(=O)Nc1c(C(C)C)cccc1C(C)C)c1ccccc1` (racemic) [Example 15, (±)-Benzeneacetic acid, α-[[[2,6-bis(1-methylethyl)phenyl]amino]carbonyl]-, 1,1-dimethylpentyl ester] belongs -72%. In the case of `CCCCCCCCCCCCC(C)(C)OC(=O)C(C(=O)Nc1c(C(C)C)cccc1C(C)C)c1ccccc1` (racemic) [Example 12, (±)-Benzeneacetic acid, α-[[[2,6-bis(1-methylethyl)phenyl]amino]carbonyl]-, 1,1-dimethyltridecyl ester], in data set [1], the “APCC % Change TC” value is -26%. With `CCCCCCCCCCCCCCCCOC(=O)C(C(=O)Nc1c(C(C)C)cccc1C(C)C)c1ccccc1` (racemic) [Example 13, (±)-Benzeneacetic acid, α-[[[2,6-bis(1-methylethyl)phenyl]amino]carbonyl]-, hexadecyl ester], the “APCC % Change TC” value in data set [1] is reported as -26%. On the same count and under the same terms, to `CCCCCCCOC(=O)C(C(=O)Nc1c(C(C)C)cccc1C(C)C)c1ccccc1` (racemic) [Example 8, (±)-Benzeneacetic acid, α-[[[2,6-bis(1-methylethyl)phenyl]amino]carbonyl]-, heptyl ester] belongs -71%; to `CCCCCC(C)OC(=O)C(C(=O)Nc1c(C(C)C)cccc1C(C)C)c1ccccc1` (racemic) [Example 7, (±)-Benzeneacetic acid, α-[[[2,6-bis(1-methylethyl)phenyl]amino]carbonyl]-, 1-methylhexyl ester], -67%.
